Results: US20120264735A1 (priority 2009, published 2012)

Biological target: T1, c-Met kinase (recombinant c-Met) (Homo sapiens, UniProt P08581)
T1 construct: 0.27 nM recombinant c-Met
Experiment: In vitro kinase assay I (homogeneous time-resolved fluorescence tyrosine kinase assay)
Format: biochemical
In short: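 Biotinylated peptide (0.5 μM) phosphorylated by 0.2 nM recombinant c-Met with 50 μM MgATP, 60 min at room temperature, pH 7.4, 5% DMSO. EDTA stop; HTRF read with Eu-anti-phosphotyrosine antibody and streptavidin-APC. IC50 from 4-parameter logistic fit.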

T1 sequence (P08581 25-1390): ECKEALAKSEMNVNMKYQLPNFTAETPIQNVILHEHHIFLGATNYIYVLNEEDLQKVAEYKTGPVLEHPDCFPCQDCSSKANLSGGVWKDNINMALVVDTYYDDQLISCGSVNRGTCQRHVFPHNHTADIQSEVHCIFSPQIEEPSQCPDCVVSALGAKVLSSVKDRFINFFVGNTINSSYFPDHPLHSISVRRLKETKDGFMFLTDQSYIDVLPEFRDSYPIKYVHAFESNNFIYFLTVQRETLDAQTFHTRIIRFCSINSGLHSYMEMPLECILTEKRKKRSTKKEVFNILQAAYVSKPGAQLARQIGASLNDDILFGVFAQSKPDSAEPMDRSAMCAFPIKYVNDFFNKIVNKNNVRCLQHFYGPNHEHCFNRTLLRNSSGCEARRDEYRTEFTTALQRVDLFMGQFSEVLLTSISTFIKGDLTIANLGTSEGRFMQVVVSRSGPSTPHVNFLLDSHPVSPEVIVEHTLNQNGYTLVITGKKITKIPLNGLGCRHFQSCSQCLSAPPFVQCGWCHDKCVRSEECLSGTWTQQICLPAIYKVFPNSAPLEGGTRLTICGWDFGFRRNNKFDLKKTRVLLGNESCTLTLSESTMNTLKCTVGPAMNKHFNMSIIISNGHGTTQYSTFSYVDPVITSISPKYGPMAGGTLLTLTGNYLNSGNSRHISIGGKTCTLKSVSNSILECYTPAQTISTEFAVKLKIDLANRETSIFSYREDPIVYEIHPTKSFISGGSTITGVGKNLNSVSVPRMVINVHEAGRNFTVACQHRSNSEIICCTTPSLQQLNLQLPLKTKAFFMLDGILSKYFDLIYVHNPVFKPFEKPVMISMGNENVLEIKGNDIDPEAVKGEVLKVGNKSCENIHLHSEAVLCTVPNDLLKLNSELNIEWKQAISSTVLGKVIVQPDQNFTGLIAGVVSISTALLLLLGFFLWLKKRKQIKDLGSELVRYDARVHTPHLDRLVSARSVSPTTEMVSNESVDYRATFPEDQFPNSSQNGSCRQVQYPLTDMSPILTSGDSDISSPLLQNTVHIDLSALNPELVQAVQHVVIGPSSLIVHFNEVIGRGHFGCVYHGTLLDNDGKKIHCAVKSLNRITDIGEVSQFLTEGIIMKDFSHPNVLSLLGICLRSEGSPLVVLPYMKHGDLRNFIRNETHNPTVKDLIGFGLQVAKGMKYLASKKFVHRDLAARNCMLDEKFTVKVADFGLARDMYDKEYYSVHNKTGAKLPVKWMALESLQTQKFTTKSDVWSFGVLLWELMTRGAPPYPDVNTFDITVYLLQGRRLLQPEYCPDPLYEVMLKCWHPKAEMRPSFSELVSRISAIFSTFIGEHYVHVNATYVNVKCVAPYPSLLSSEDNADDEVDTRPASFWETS

SMILES	IC50 [nM]
O=C(Nc1cccc(Cc2nn(-c3cc(F)c(F)c(F)c3)ccc2=O)c1)OCCCN1CCNCC1 [Example 623, 3-piperazin-1-ylpropyl (3-{[4-oxo-1-(3,4,5-trifluorophenyl)-1,4-dihydropyridazin-3-yl]methyl}phenyl)carbamate]	< 100
CC(c1cccc(-c2ncc(OC3COC3)cn2)c1)c1nn(-c2cnn(C)c2)ccc1=O (single isomer, unassigned) [Example 215, 1-(1-methyl-1H-pyrazol-4-yl)-3-((1S or R)-1-{3-[5-(oxetan-3-yloxy)pyrimidin-2-yl]phenyl}ethyl)pyridazin-4(1H)-one]	100 to 1000
Cn1cc(-n2ccc(=O)c(Cc3cccc(-c4ncc(OCC(=O)OC(C)(C)C)cn4)c3)n2)cn1 [Example 287, tert-butyl [2-(3-{[1-(1-methyl-1H-pyrazol-4-yl)-4-oxo-1,4-dihydropyridazin-3-yl]methyl}phenyl)pyrimidin-5-yl]oxyacetate]	< 100
COCCC(=O)Nc1cnc(-c2cccc(Cc3nn(-c4cnn(C)c4)ccc3=O)c2)nc1 [Example 458, 3-Methoxy-N-[2-(3-{[1-(1-methyl-1H-pyrazol-4-yl)-4-oxo-1,4-dihydropyridazin-3-yl]methyl}phenyl)pyrimidin-5-yl]propanamide]	< 100
CCOCCOc1cnc(-c2cccc(Cc3nn(-c4cccc(C#N)c4)ccc3=O)c2)nc1 [Example 323, 3-[3-{3-[5-(2-ethoxyethoxy)pyrimidin-2-yl]benzyl}-4-oxopyridazin-1(4H)-yl]benzonitrile]	< 100
Cn1cc(-n2ccc(=O)c(Cc3cccc(-c4ncc(OCC(F)F)cn4)c3)n2)cn1 [Example 274, 3-{3-[5-(2,2-difluoroethoxy)pyrimidin-2-yl]benzyl}-1-(1-methyl-1H-pyrazol-4-yl)pyridazin-4(1H)-one]	< 100
Cn1cc(-n2ccc(=O)c(Cc3cccc(-c4ncc(O[C@H]5CCC[C@@H]5O)cn4)c3)n2)cn1 (single isomer, unassigned) [Example 379]	< 100
CCOc1cnc(-c2cccc(C(C)c3nn(-c4cnn(CC)c4)ccc3=O)c2)nc1 (single isomer, unassigned) [Example 245, 3-{(1S or R)-1-[3-(5-ethoxypyrimidin-2-yl)phenyl]ethyl}-1-(1-ethyl-1H-pyrazol-4-yl)pyridazin-4(1H)-one]	100 to 1000
O=c1ccn(-c2ccc(F)c(F)c2)nc1Cc1cccc(-c2ncc(OC3CCOC3)cn2)c1 (racemic) [Example 327, rac-1-(3,4-difluorophenyl)-3-{3-[5-(tetrahydrofuran-3-yloxy)pyrimidin-2-yl]benzyl}pyridazin-4(1H)-one]	< 100
CCn1cc(-n2ccc(=O)c(C(C)c3cccc(-c4ncc(OC5CNC5)cn4)c3)n2)cn1 (single isomer, unassigned) [Example 340, 3-((1R or S)-1-{3-[5-(azetidin-3-yloxy)pyrimidin-2-yl]phenyl}ethyl)-1-(1-ethyl-1H-pyrazol-4-yl)pyridazin-4(1H)-one]	< 100
Cn1cc(-n2ccc(=O)c(Cc3cccc(N4CCOC4=O)c3)n2)cn1 [Example 637, 1-(1-Methyl-1H-pyrazol-4-yl)-3-[3-(2-oxo-1,3-oxazolidin-3-yl)benzyl]pyridazin-4(1H)-one]	1000 to 3000
CCOc1cnc(-c2cccc(C(F)c3nn(-c4cnn(C)c4)ccc3=O)c2)nc1 (single isomer, unassigned) [Example 656, 3-[(R or S)-[3-(5-ethoxypyrimidin-2-yl)phenyl](fluoro)methyl]-1-(1-methyl-1H-pyrazol-4-yl)pyridazin-4(1H)-one]	< 100
Cc1ccnc(-c2cccc(C(C)c3nn(-c4cnn(C)c4)ccc3=O)c2)n1 (single isomer, unassigned) [Example 691, 1-(1-methyl-1H-pyrazol-4-yl)-3-{(1R or S)-1-[3-(4-methylpyrimidin-2-yl)phenyl]ethyl} pyridazin-4(1H)-one]	< 100
CCCn1cnc(-c2cccc(Cc3nn(-c4cc(F)cc(C#N)c4)ccc3=O)c2)n1 [Example 81, 3-fluoro-5-{4-oxo-3-[3-(1-propyl-1H-1,2,4-triazol-3-yl)benzyl]pyridazin-1(4H)-yl}benzonitrile]	< 100
CCOc1cnc(-c2cccc(Sc3nn(-c4cnn(C)c4)ccc3=O)c2)nc1 [Example 756, 3-{[3-(5-Ethoxypyrimidin-2-yl)phenyl]sulfanyl}-1-(1-methyl-1H-pyrazol-4-yl)pyridazin-4(1H)-one]	1000 to 3000
COCC(=O)Nc1cnc(-c2cccc(Cc3nn(-c4cnn(C)c4)ccc3=O)c2)nc1 [Example 461, 2-methoxy-N-[2-(3-{[1-(1-methyl-1H-pyrazol-4-yl)-4-oxo-1,4-dihydro-pyridazin-3-yl]methyl}phenyl)pyrimidin-5-yl]acetamide]	< 100
CCc1cnc(-c2cccc(C(C)c3nn(-c4ccc(F)c(F)c4)ccc3=O)c2)nc1 (single isomer, unassigned) [Example 231, 1-(3,4-difluorophenyl)-3-{(1R or S)-1-[3-(5-ethylpyrimidin-2-yl)phenyl]ethyl}pyridazin-4(1H)-one]	< 100
CCOc1cnc(-c2cccc(C(C)c3nn(-c4cnn(CCO)c4)ccc3=O)c2)nc1 (single isomer, unassigned) [Example 255, 3-{(1S or R)-1-[3-(5-Ethoxypyrimidin-2-yl)phenyl]ethyl}-1-[1-(2-hydroxyethyl)-1H-pyrazol-4-yl]pyridazin-4(1H)-one]	100 to 1000
CCCn1cnc(-c2cccc(C(C)c3nn(-c4cnn(CC)c4)ccc3=O)c2)n1 (single isomer, unassigned) [Example 689]	< 100
O=C(Nc1cccc(Cc2nn(-c3ccc(F)c(F)c3)ccc2=O)c1)OCCN1CCOCC1 [Example 22, 2-morpholin-4-ylethyl (3-{[1-(3,4-difluorophenyl)-4-oxo-1,4-dihydropyridazin-3-yl]methyl}phenyl)carbamate]	< 100
CCCC(c1cccc(-c2ncc(OCC)cn2)c1)c1nn(-c2cnn(C)c2)ccc1=O (single isomer, unassigned) [Example 208, 3-{(1R or S)-1-[3-(5-ethoxypyrimidin-2-yl)phenyl]butyl}-1-(1-methyl-1H-pyrazol-4-yl)pyridazin-4(1H)-one]	< 100
Cn1cc(-n2ccc(=O)c(Cc3cccc(-c4ncc(NC(=O)C5CCCO5)cn4)c3)n2)cn1 (racemic) [Example 462, rac-N-[2-(3-{[1-(1-methyl-1H-pyrazol-4-yl)-4-oxo-1,4-dihydro-pyridazin-3-yl}methyl}phenyl)pyrimidin-5-yl]tetra-hydrofuran-2-carboxamide]	< 100
Cn1cc(-n2ccc(=O)c(Cc3cccc(-c4ncc(CCC(C)(C)O)cn4)c3)n2)cn1 [Example 437, 3-{3-[5-(3-hydroxy-3-methylbutyl)pyrimidin-2-yl]benzyl}-1-(1-methyl-1H-pyrazol-4-yl)pyridazin-4(1H)-one]	< 100

Further lines, results first:

IC50 [nM]	SMILES
< 100	Cn1cc(-n2ccc(=O)c(Cc3cccc(NC(=O)OCC4(F)CCOCC4)c3)n2)cn1 [Example 613, (4-fluorotetrahydro-2H-pyran-4-yl)methyl (3-{[1-(1-methyl-1H-pyrazol-4-yl)-4-oxo-1,4-dihydropyridazin-3-yl]methyl}phenyl)carbamate]
< 100	Cn1cc(-n2ccc(=O)c(Cc3cccc(NC(=O)OCc4ccccc4)c3)n2)cn1 [Example 498, benzyl(3-{[1-(1-methyl-1H-pyrazol-4-yl)-4-oxo-1,4-dihydropyridazin-3-yl]methyl}phenyl)carbamate]
< 100	CC(C)COC(=O)Nc1cccc(Cc2nn(-c3cnn(CC(=O)O)c3)ccc2=O)c1 [Example 181, {4-[3-(3-{[(2-methylpropoxy)carbonyl]amino}benzyl)-4-oxopyridazin-1(4H)-yl]-1H-pyrazol-1-yl}acetic acid]
< 100	Cn1cc(-n2ccc(=O)c(Cc3cccc(NC(=O)OCC4CCO4)c3)n2)cn1 (racemic) [Example 578, rac-oxetan-2-ylmethyl (3-{[1-(1-methyl-1H-pyrazol-4-yl)-4-oxo-1,4-dihydropyridazin-3-yl]methyl}phenyl)carbamate]
< 100	CCCn1cc(-n2ccc(=O)c(Cc3cccc(NC(=O)OCC)c3)n2)cn1 [Example 112, ethyl (3-{[4-oxo-1-(1-propyl-1H-pyrazol-4-yl)-1,4-dihydropyridazin-3-yl]methyl}phenyl)carbamate]
1000 to 3000	Cn1cc(-n2ccc(=O)c(Cc3cccc(NC(=O)Cc4ccccc4)c3)n2)cn1 [Example 632, N-(3-{[1-(1-methyl-1H-pyrazol-4-yl)-4-oxo-1,4-dihydropyridazin-3-yl]methyl}phenyl)-2-phenylacetamide]
100 to 1000	CCCOC(=O)Nc1cccc(Cc2nn(-c3ccn(C)n3)ccc2=O)c1 [Example 27, propyl (3-{[1-(1-methyl-1H-pyrazol-3-yl)-4-oxo-1,4-dihydropyridazin-3-yl]methyl}phenyl)carbamate]
< 100	CCCn1cc(-n2ccc(=O)c(Cc3cccc(NC(=O)OCC(C)C)c3)n2)cn1 [Example 113, 2-methylpropyl (3-{[4-oxo-1-(1-propyl-1H-pyrazol-4-yl)-1,4-dihydropyridazin-3-yl]methyl}phenyl)carbamate]
100 to 1000	CCOC(=O)Nc1cccc(Cc2nn(-c3cnn(CCOC)c3)ccc2=O)c1 [Example 106, ethyl [3-({1-[1-(2-methoxyethyl)-1H-pyrazol-4-yl]-4-oxo-1,4-dihydropyridazin-3-yl}methyl)phenyl]carbamate]
< 100	Cn1cc(-n2ccc(=O)c(Cc3cccc(NC(=O)OCCn4ccnc4)c3)n2)cn1 [Example 510, 2-(1H-Imidazol-1-yl)ethyl(3-{[1-(1-methyl-1H-pyrazol-4-yl)-4-oxo-1,4-dihydropyridazin-3-yl]methyl}phenyl)carbamate]
< 100	Cn1cc(-n2ccc(=O)c(Cc3cccc(NC(=O)OCC4CCC4)c3)n2)cn1 [Example 538, cyclobutylmethyl (3-{[1-(1-methyl-1H-pyrazol-4-yl)-4-oxo-1,4-dihydropyridazin-3-yl]methyl}phenyl)carbamate]
